Where two headings read alike, the source gives them in different places. Marks after values point to notes of the source that are not given here.

The nature of data set [1]: risk score from prevalence in routine forensic samples and intoxication cases (G1, PSS, TSS). Also on record: species or system human. From the text:
Therefore, higher values indicate substances with a higher risk. […] To take into account the severity of symptoms and the contribution of the specific NPS, two further summands were introduced. The first is based on the PSS, the second on the TSS. Again, higher values were associated with more severe symptoms and a stronger role of the NPS in causing the symptoms.
The risk score is composed of three components (parts G1, G2 and G3) and was designed as follows: (1) Gx=G1x+G2x+G3x,
Equation 2 takes into consideration several components: the number of intoxications with SCRA x in quarter k over the total number of intoxications of all investigated SCRAs in the same quarter; the number of serum/blood samples positive for SCRA x over the total number of serum/blood samples positive for all SCRAs plus the number of urine samples positive for SCRA x over the total number of urine samples positive for all SCRAs (this is divided by two to account for the two different sample types); and the number of quarters in which the SCRA x was prevalent. (2) G1x=∑k=1gak/bk/ck/dk+ek/fk/2/h+i
Consequently, equation 2 was mathematically rearranged. To further simplify the equation and reduce the formula signs, in equation 3 the following simplifications were taken: a/b=ai , c/d=as and e/f=au .
The sum of these quotients was divided by the number of all prevalent quarters (q p ). Prevalent quarters were defined as quarters in which on average the substance was detected in more than 5% of the positive serum and urine samples. If a poisoning occurred in a quarter in which the substance was not prevalent, the number of these quarters was added (q i ). This part of the score has similarities with an OR [42]. If the proportion of routine samples in a given quarter in which an intoxication with the respective substance occurred was zero (a s + a u = 0), a value of 0.01 was used for that quarter in the calculation of the quotient to avoid division by zero.
(§1) For part G2, the severity of the intoxication caused by the respective SCRA x was assessed on the basis of reported symptoms and follow‐up information using the PSS [20]. The PSS classifies the intoxication severity into five levels: (0) no, (1) mild, (2) moderate, (3) severe, and (4) fatal intoxication. […] For this purpose, the mean value of the PSS of all intoxications with the respective SCRA x was calculated ( G2x) .
(§2) For part G3, the involvement of the SCRA in the respective intoxications was assessed. This was evaluated on the basis of the TSS [21]. Elliott et al. developed the TSS to assess and classify the contribution of NPS in fatalities. In the present study, the TSS was determined to weigh the involvement of the investigated SCRA in the intoxication and the contribution of the SCRA to the observed symptoms. To determine the TSS value, factors such as the determined concentration of the SCRA, the presence of other recreational drugs or medicinal drugs, the general health of the patient and the consumption circumstances need to be considered. […] In cases with more than one drug detected, a TSS of 3 was only assigned where other compounds were present at concentrations below the range in which relevant effects are to be expected.
For the risk score, the mean value of the TSS of all intoxications with substance x was calculated ( G3x) . Analogous to the value of G2x , the value of G3x can theoretically be between 1 and 3. With a value of ‘1’, substance x was not mainly responsible for the symptoms in all of the intoxications (low level of significance), and with a value of ‘3’, it was the main cause in every poisoning in which it was detected.

The target of data set [2] is T1, hCB1 receptor (Homo sapiens, UniProt P21554). Description: competitive [3H]CP‐55940 radioligand binding assay (hCB1 receptor affinity). The following applies: Ki [nM] (95% CI), [3H]CP‐55940 competition, hCB1 membrane preparations (HEK293‐EBNA), Cheng–Prusoff; 95% CI in brackets. How it is done:
(§3) Receptor assays were performed on three different days and each concentration was tested in duplicate.
From the IC50, the respective Ki values were calculated using the Cheng–Prusoff equation [39].

Data set [3] in a line: occurrence of SCRAs in intoxication samples of the prospective study. Also on record: species or system human. As to conditions: 2013 to 2021. From the text: For this study, the 10 SCRAs (AB‐[…], ADB‐[…], AB‐FUBINACA, FUB‐AMB, Cumyl‐PEGACLONE, MDMB‐4en‐PINACA, MDMB‐CHMICA, 5F‐MDMB‐PICA, 5F‐ADB and 5F‐PB‐22) which were most frequently detected in intoxications in a prospective observational study during the time period of 2013 to 2021 were selected (see Table 1). Additionally, JWH‐210, a model compound representative of the early SCRAs, along with two substances prevalent in screenings during years 2019/2020 (5F‐Cumyl‐PEGACLONE and 4F‐MDMB‐BICA), were included in this study (see Tables S2–S7). […] JWH‐018 was also included as a reference compound because of its historical use in this capacity. Including both reference compounds facilitates direct comparison with previously published data, thereby enhancing the relevance and interpretability of the results obtained in the present study. Information on the origin of the test and reference compounds and all chemicals used in this study can be found in Table S1.
The data on intoxication cases used for the development of this risk score were obtained from a prospective study. This study included patients who were treated in an emergency department room following the consumption of an NPS. Clinical symptoms and follow‐up information were documented using a structured questionnaire completed by the attending physicians. The methodology has been previously published. Residual serum (obtained from venous blood) and urine samples, accompanied by the completed questionnaires, were sent to the Poisons Information Center Freiburg for further analysis. The toxicological analyses of serum and urine samples were conducted at the Institute of Forensic Medicine Freiburg. No data was available on previous consumption patterns or potential development of tolerance after continued misuse. The study was conducted in accordance with the Declaration of Helsinki and approved by the regional ethics committee of the University of Freiburg (no. 235/13_130683). The intoxication cases included in this study are those in which SCRA use was confirmed by liquid chromatography tandem mass spectrometry (LC–MS/MS).

Data set [4] is described as follows: clinical symptoms, PSS and TSS assessment of individual intoxication cases. The data set is classed as in vivo, human. Also on record: key to PSS: 0: no; 1: mild; 2: moderate; 3: severe; 4: fatal intoxication. How it is done: Forty‐eight cases were included in the present study.
The PSS was determined based on the described symptoms.
as §1, §2

For data set [5], the target named is T1, hCB1 receptor. As to conditions: ref Wouters et al. [29], cited from earlier work.
Data set [6] has as its target T1, hCB1 receptor. Description: functional [35S]GTPγS hCB1 activation assay. It is filed as biochemical. How it is done: as §3
For orientation: GTPγS resists hydrolysis and so accumulates on activated G proteins.

T1 sequence (P21554 whole entry): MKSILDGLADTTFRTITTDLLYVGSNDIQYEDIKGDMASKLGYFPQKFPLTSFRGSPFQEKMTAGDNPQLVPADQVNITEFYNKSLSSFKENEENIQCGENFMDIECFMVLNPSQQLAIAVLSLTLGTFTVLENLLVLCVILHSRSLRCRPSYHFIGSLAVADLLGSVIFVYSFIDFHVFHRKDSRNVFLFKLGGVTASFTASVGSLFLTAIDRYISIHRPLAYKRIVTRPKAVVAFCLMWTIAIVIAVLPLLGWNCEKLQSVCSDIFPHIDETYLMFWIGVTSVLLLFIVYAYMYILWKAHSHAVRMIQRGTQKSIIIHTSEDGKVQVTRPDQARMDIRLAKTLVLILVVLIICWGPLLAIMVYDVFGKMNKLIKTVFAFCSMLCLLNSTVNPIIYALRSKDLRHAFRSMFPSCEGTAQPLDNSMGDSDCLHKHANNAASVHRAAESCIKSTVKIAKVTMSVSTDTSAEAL

With `CC(C)C(NC(=O)c1nn(CC2CCCCC2)c2ccccc12)C(N)=O` (stereo not shown), in data set [1] (G1+G2+G3, higher value = greater toxicological risk), the “G total (risk score)” value came to 7.2. Moreover, the G2 in data set [1] (mean Poison Severity Score (PSS) of all intoxications with the SCRA) was 2.1. In addition, the G3 in data set [1] (mean Toxicological Significance Score (TSS) of all intoxications with the SCRA) was 2.3. Besides, in data set [1] (proportion in intoxication cases relative to prevalence in routine serum/blood and urine samples per quarter, 2013–2021, >1 over‐represented in intoxications), the G1 was 2.8. The Ki – broadly, a dissociation constant, usually derived from enzyme kinetics or from competition with a known ligand – on hCB1 receptor [2] was determined as 0.145 nM. In data set [3] (139 intoxication samples of the prospective study), this compound displayed a No. of intoxications of 33. Further, the Percentage in % in data set [3] (proportion of 139 intoxications in which the substance was detected) is on record as 24%. Also, the PSS in data set [4] (intoxication case A) is 3; in data set [4] (intoxication case B), 2. The Recorded symptoms entry was “severe bradycardia (35 bpm/minutes)” in data set [4] (intoxication case A, 3‐MMC also present); “bradycardia (35 bpm/min), seizure, hypokalaemia” in data set [4] (intoxication case A, 3‐MMC also present, listed as AB-CHMINACA); “disorientation and miosis” in data set [4] (intoxication case B, four other SCRAs at very low concentrations). Further, the EC50 (in general, the midpoint of the concentration-response curve) at hCB1 receptor [5] (read-out: βarr2 assay EC50 [nM] (95% CI)) was 3.45 nM; on hCB1 receptor [6], 5.09 nM. At hCB1 receptor [5] (relative to CP‐55940, originally normalised to JWH‐018, corrected with factor 0.3268), the “βarr2 assay Emax [%] (95% CI)” value is given as 1195 ^a (1097–1331) %. Further, the Emax (commonly the greatest response seen or fitted, relative to the assay's reference) at hCB1 receptor [6] (read-out: [35S]‐GTPγS assay Emax [%] (95% CI)) came to 124%.

The values above are taken from publication PMC12980303, “Development of a novel risk score reflecting the relative harm potential of synthetic cannabinoids based on prevalence estimates, well‐documented intoxication cases and basic pharmacological data” (Addiction (Abingdon, England), 2025).
